Source: US20140007865A1, “OLOPATADINE NASAL SPRAY REGIMEN FOR CHILDREN” (Alcon Research, Ltd., priority 2009, published 2014)

Experiment: Acid-base equilibrium (pKa) of olopatadine
Format: physicochemical
Source text: Olopatadine has both a carboxylic functional group (pKa1=4.18) and a tertiary amino group (pKa2=9.79). It exists in different ionic forms depending upon the pH of the solution. Olopatadine exists predominantly as a zwitterion in the pH range between the two pKa values with a negatively-charged carboxylic group and a positively-charged tertiary amino group. The iso-electric point of the olopatadine zwitterion is at pH 6.99. At a pH lower than pKa1, cationic olopatadine (with ionized tertiary amino group) is dominant. At a pH higher than pKa2, anionic olopatadine (with ionized carboxylic group) is dominant.

CN(C)CC/C=C1/c2ccccc2COc2ccc(CC(=O)O)cc21 [Olopatadine, Z-11-(3-dimethylaminopropylidene)-6,1′-dihydrodibenz[b,e]oxepine-2-acetic acid]
iso-electric point of the olopatadine zwitterion: 6.99 pH
pKa1 (carboxylic functional group): 4.18
pKa2 (tertiary amino group): 9.79
